Laboratory results reported in the supplement of paper PMC11061612.

Legend:
Assay in all cases: Bliss excess, mean over the matrix (fraction); higher = more synergy
[1] = tested on: A253 (Head and Neck Carcinoma)
Outline: (§1)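 Cell lines grown in DMEM/F12 or RPMI with 10% FBS were plated in 1536-well plates and held 24 hours at 37°C, 5% CO2 before 72 hours of exposure to two-drug dose matrices, with DMSO typically at 0.2%. CellTiter-Glo 2.0 luminescence gave viability, which was converted to inhibition. Vehicle wells were set to 0 and blank wells to 1. Combination Emax is the second-highest inhibition in the matrix, and Bliss excess is the observed combination effect minus the expected EA + EB − EA·EB, where EA and EB are the single-agent effects.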

[2] = tested on: CAL-27 (Oral Cavity Carcinoma)
Outline: as §1

[3] = tested on: DU-4475 (Breast Carcinoma)
Outline: as §1

EW-16 (Ewing's Sarcoma) = tested on: EW-16 (Ewing's Sarcoma)
Outline: as §1

[4] = tested on: GA-10 (Burkitt's Lymphoma)
Outline: as §1

[5] = tested on: HCC1428 (Breast Carcinoma)
Outline: as §1

[6] = tested on: HT55 (Colorectal Carcinoma)
Outline: as §1

[7] = tested on: JVM-2 (B-Cell Non-Hodgkin's Lymphoma)
Outline: as §1

[8] = tested on: Jurkat (T-Lymphoblastic Leukemia)
Outline: as §1

[9] = tested on: LS-411N (Colorectal Carcinoma)
Outline: as §1

[10] = tested on: NCI-H2228 (Lung Adenocarcinoma)
Outline: as §1

Compound `CN(CCO)CC[C@H](CSc1ccccc1)Nc1ccc(S(=O)(=O)NC(=O)c2ccc(N3CCC([C@@H](O)c4ccccc4-c4ccc(Cl)cc4)CC3)cc2)cc1S(=O)(=O)C(F)(F)F` [AZD4320] + Cn1cnc2c(F)c(Nc3ccc(Br)cc3Cl)c(C(=O)NOCCO)cc21 [Selumetinib] (first compound max 1 µM, 7x7, partner max 3 µM) has a Bliss excess [1] of 0.0339, a Bliss excess [2] of 0.0321 and a Bliss excess [3] of 0.0444. For the same compound, the Bliss excess (EW-16 (Ewing's Sarcoma)) was 0.076, the Bliss excess [4] was -0.0143 and the Bliss excess [5] was 0.0011. For the same compound, the Bliss excess [6] was 0.0074, the Bliss excess [7] was 0.025 and the Bliss excess [8] was 0.0229. The Bliss excess [9] was 0.0165 and the Bliss excess [10] was 0.0075.

With `C[C@@H](c1ccc2nccn2c1)n1nnc2ncc(-c3cnn(C)c3)nc21` [Savolitinib] + CN(CC[C@H](CSC1=CC=CC=C1)NC2=C(C=C(C=C2)S(=O)(=O)NC(=O)C3=CC=C(C=C3)N4CCC(CC4)[C@H](C5=CC=CC=C5C6=CC=C(C=C6)Cl)O)S(=O)(=O)C(F)(F)F)CCO [AZD4320] (first compound max 1 µM, 7x7, partner max 1 µM) the Bliss excess [1] was -0.0569, the Bliss excess [2] was -0.0514 and the Bliss excess [3] was -0.0352. The Bliss excess (EW-16 (Ewing's Sarcoma)) was -0.0994, the Bliss excess [4] was -0.0196 and the Bliss excess [5] was -0.0206. For the same compound, the Bliss excess [6] was -0.0439, the Bliss excess [7] was -0.0313 and the Bliss excess [8] was -0.0638. It also gave a Bliss excess [9] of -0.0069 and a Bliss excess [10] of -0.0527.

`CN(CCO)CC[C@H](CSc1ccccc1)Nc1ccc(S(=O)(=O)NC(=O)c2ccc(N3CCC([C@@H](O)c4ccccc4-c4ccc(Cl)cc4)CC3)cc2)cc1S(=O)(=O)C(F)(F)F` [AZD4320] + C[C@@H]1COCCN1C2=NC(=NC(=C2)C3(CC3)[S@](=N)(=O)C)C4=C5C=CNC5=NC=C4 [AZD6738] (first compound max 1 µM, 7x7, partner max 10 µM) was tested, and the Bliss excess [1] was 0.0045, the Bliss excess [2] was -0.0544 and the Bliss excess [3] was 0.0521. The Bliss excess (EW-16 (Ewing's Sarcoma)) was -0.101, the Bliss excess [4] was -0.0075 and the Bliss excess [5] was 0.0184. The Bliss excess [6] was 0.0093, the Bliss excess [7] was 0.0102 and the Bliss excess [8] was -0.0112. It also gave a Bliss excess [9] of 0.0135 and a Bliss excess [10] of -0.0628.

Work on `CN(CCO)CC[C@H](CSc1ccccc1)Nc1ccc(S(=O)(=O)NC(=O)c2ccc(N3CCC([C@@H](O)c4ccccc4-c4ccc(Cl)cc4)CC3)cc2)cc1S(=O)(=O)C(F)(F)F` [AZD4320] + C[C@@H](Nc1cc(F)cc(F)c1)c1cc(C(=O)N(C)C)cc2c(=O)cc(N3CCOCC3)oc12 [AZD8186] (first compound max 1 µM, 7x7, partner max 3 µM) yielded a Bliss excess [1] of 0.0229, a Bliss excess [2] of 0.0005 and a Bliss excess [3] of 0.0131. The Bliss excess (EW-16 (Ewing's Sarcoma)) was -0.0129, the Bliss excess [4] was 0.0166 and the Bliss excess [5] was 0.0149. The Bliss excess [6] was -0.0003, the Bliss excess [7] was 0.0133 and the Bliss excess [8] was 0.0576. It also gave a Bliss excess [9] of 0.031 and a Bliss excess [10] of -0.0301.

With `CN(CCO)CC[C@H](CSc1ccccc1)Nc1ccc(S(=O)(=O)NC(=O)c2ccc(N3CCC([C@@H](O)c4ccccc4-c4ccc(Cl)cc4)CC3)cc2)cc1S(=O)(=O)C(F)(F)F` [AZD4320] + C=CCn1c(=O)c2cnc(Nc3ccc(N4CCN(C)CC4)cc3)nc2n1-c1cccc(C(C)(C)O)n1 [AZD1775] (first compound max 1 µM, partner max 1 µM) the Bliss excess [1] was 0.0503, the Bliss excess [2] was -0.0226 and the Bliss excess [3] was 0.0013. For the same compound, the Bliss excess (EW-16 (Ewing's Sarcoma)) was 0.033, the Bliss excess [4] was -0.0167 and the Bliss excess [5] was 0.0369. For the same compound, the Bliss excess [6] was 0.0167, the Bliss excess [7] was 0.0965 and the Bliss excess [8] was 0.0568. It also gave a Bliss excess [9] of 0.0549 and a Bliss excess [10] of -0.0344.

With `CN(CCO)CC[C@H](CSc1ccccc1)Nc1ccc(S(=O)(=O)NC(=O)c2ccc(N3CCC([C@@H](O)c4ccccc4-c4ccc(Cl)cc4)CC3)cc2)cc1S(=O)(=O)C(F)(F)F` [AZD4320] + Cc1cc2ncnn2cc1Nc1ncc2c(n1)n(C1CCOCC1)c(=O)n2C [AZD7648] (first compound max 1 µM, 7x7, partner max 10 µM) the Bliss excess [1] was -0.0253, the Bliss excess [2] was -0.0355 and the Bliss excess [3] was 0.0627. For the same compound, the Bliss excess (EW-16 (Ewing's Sarcoma)) was -0.0475, the Bliss excess [4] was -0.0669 and the Bliss excess [5] was 0.025. The Bliss excess [6] was -0.0404, the Bliss excess [7] was -0.0111 and the Bliss excess [8] was 0.0134. The Bliss excess [9] was -0.0132 and the Bliss excess [10] was -0.0231.

`CN(CCO)CC[C@H](CSc1ccccc1)Nc1ccc(S(=O)(=O)NC(=O)c2ccc(N3CCC([C@@H](O)c4ccccc4-c4ccc(Cl)cc4)CC3)cc2)cc1S(=O)(=O)C(F)(F)F` [AZD4320] + CCN(CCO)CCCOc1ccc2c(Nc3cc(CC(=O)Nc4cccc(F)c4)[nH]n3)ncnc2c1 [AZD2811] (first compound max 1 µM, 7x7, partner max 1 µM) gave a Bliss excess [1] of 0.0364, a Bliss excess [2] of 0.0635 and a Bliss excess [3] of 0.0738. For the same compound, the Bliss excess (EW-16 (Ewing's Sarcoma)) was 0.14, the Bliss excess [4] was -0.0203 and the Bliss excess [5] was 0.16. The Bliss excess [6] was -0.0005, the Bliss excess [7] was 0.0677 and the Bliss excess [8] was 0.0105. It also gave a Bliss excess [9] of 0.0119 and a Bliss excess [10] of -0.0025.
